Columns and labels:
Swiss Webster mice = test: Mouse locomotor activity test; details: up to 30 mg/kg, versus cocaine
[1] = Plasma pharmacokinetics in mice, 10 mg/kg i.v. and p.o.
Experimental: (§1) Plasma was harvested from blood by centrifugation. Additionally at two selected time points (i.e. 30 min and 2 h) brains were collected following both oral and IV dosing. Samples were extracted from plasma by a single one-step protein precipitation method (as described in bioanalysis section below). For brain tissue, whole brains were weighed and homogenized in two times the volume of acetonitrile, followed by vortexing and centrifugation. Once extracted, the samples were analyzed via LC/MS/MS (as described in bioanalysis section below). Non-compartmental-analysis module in WinNonlin™ (version 5.3) was used to assess pharmacokinetic parameters including maximal concentration (Cmax), time to Cmax (Tmax), area under the curve (AUClast), area extrapolated to infinity (AUC0-∞), terminal disposition rate constant (ke), and terminal half-life (t½).
(§2) Briefly, plasma samples were thawed on ice prior to extraction. Samples (50 μL) were extracted in 300 μL acetonitrile containing 1000 nM losartan as internal standard. For brain, 50 μL of the supernatant from homogenized tissue was extracted with 100 μL acetonitrile containing 1000 nM losartan as internal standard. Extracts were centrifuged at 16000×g at 4° C. for 10 minutes. Supernatants were transferred to a new siliconized tube and dried under N2 at 45° C. for 30 min. Samples were reconstituted with 100 μL of 30% acetonitrile, vortexed and centrifuged. Supernatants (95 μL) were transferred to a 250 μL polypropylene autosampler vials sealed with a Teflon cap and a volume of 10 μL was injected onto the ultra-performance liquid chromatography (UPLC) instrument for quantitative analysis using a temperature-controlled autosampler operating at 10° C.
(§3) The instrument was controlled by the Xcalibur software 2.3 (Thermo Scientific). Samples were introduced to the interface through Turbo Ion Spray with the temperature setting at 350° C.
(§4) Chromatographic analysis was performed using an Accela™ ultra high-performance system consisting of an analytical pump, and an autosampler coupled with TSQ Vantage mass spectrometer (Thermo Fisher Scientific Inc., Waltham Mass.).

[2] = Phase I metabolic stability in mouse liver microsomes (NADPH); format: in vitro ADME; details: 10 μM
Experimental: (§5) Phase I and phase II metabolic stability assay for was conducted in mouse liver microsomes. For phase I metabolism, the reaction was carried out with 100 mM potassium phosphate buffer, pH 7.4, in the presence of NADPH regenerating system (1.3 mM NADPH, 3.3 mM glucose 6-phosphate, 3.3 mM MgCl2, 0.4 U/mL glucose-6-phosphate dehydrogenase, 50 μM sodium citrate). Reactions in duplicate were initiated by addition of the liver microsomes to the incubation mixture (compound final concentration was 10 μM; 0.5 mg/mL microsomes). For phase II glucuronidation reaction compound was added to TRIS-HCl buffer (50 mM, pH 7.5) with microsomes (0.5 mg/mL), along with MgCl2 (8 mM), and alamethicin (25 μg/mL) and pre-incubated at 37° C. The reaction was initiated (in duplicate) with UDPGA at a final concentration of 2 mM. Negative controls in the absence NADPH and UDPGA were carried for both phase I and phase II metabolism respectively, to determine the specific cofactor free degradation. […] At predetermined times (0, 15, 30 and 60 min) aliquots of the mixture were removed and the reaction quenched by addition of two times the volume of ice cold acetonitrile spiked with the internal standard. Compound disappearance was monitored over time using a liquid chromatography and tandem mass spectrometry (LC/MS/MS) method.
(§6) Compounds were separated on an Agilent 1290 UPLC system with a c18 column using a gradient run of 55:45-5:95 water:acetonitrile over 3.2 minutes and detected on an Agilent 6520 QTOF mass spectrometer.

[3] = Brain concentrations in mice after IV and PO dosing at 10 mg/kg; details: for concentration at 0.5 h / concentration at 2 h: male, CD1, mouse, in vivo, 10 mg/kg
Experimental: as §1, §2, §3, §4

[4] = Phase II (glucuronidation, UDPGA) metabolic stability in mouse liver microsomes; format: in vitro ADME
Experimental: as §5, §6

[5] = Metabolic stability in mouse plasma; format: in vitro ADME; details: for Metabolic stability, Plasma (% remaining): mouse plasma, 10 μM
Experimental: The metabolic stability was evaluated using mouse plasma and mouse liver microsomes.

[6] = Negative control: mouse liver microsomes without cofactors; format: in vitro ADME; details: for Metabolic stability, Negative Control (% remaining): microsomes without cofactors
Experimental: as §5, §6

[7] = male, CD1, mouse, in vivo, iv, 10 mg/kg
[8] = male, CD1, mouse, in vivo, po, 10 mg/kg

Fc1ccc(C(SCCNCCCc2ccccc2)c2ccc(F)cc2)cc1 [Compound 4g, N-(2-((bis(4-fluorophenyl)methyl)thio)ethyl)-3-phenylpropan-1-amine]
locomotor stimulation (ambulatory distance) (Swiss Webster mice): does not produce locomotor stimulation | bioavailability ([1]; male, CD1, mouse, in vivo, 10 mg/kg, F % (absolute bioavailability), mouse, 10 mg/kg P.O. versus I.V.): ~10% | AUC(0-inf) [1, 7]: 2040 µg·h/mL | AUC(0-t) [1, 7]: 1.96 µg·h/mL | Tmax [1, 7]: 4.8 min | AUC(0-inf) [1, 8]: 203 µg·h/mL | AUC(0-t) [1, 8]: 0.155 µg·h/mL | Tmax [1, 8]: 30 min | Ke ([1]; mouse plasma, 10 mg/kg I.V.): 0.6952 | Metabolic stability, Phase I (% remaining) ([2]; 0 min): 100% | Metabolic stability, Phase I (% remaining) ([2]; 30 min): 95% | Metabolic stability, Phase I (% remaining) ([2]; 60 min): 77% | concentration at 0.5 h ([3]; iv): 4780 ng/g | concentration at 2 h ([3]; iv): 14100 ng/g | concentration at 0.5 h ([3]; po): 369 ng/g | concentration at 2 h ([3]; po): 223 ng/g | brain penetrability ([3]; mouse, following both p.o. and i.v. dosing): excellent brain penetrability | Metabolic stability, Phase II (% remaining) ([4]; 0 min): 100% | Metabolic stability, Phase II (% remaining) ([4]; 15 min): 90% | Metabolic stability, Phase II (% remaining) ([4]; 30 min): 77% | Metabolic stability, Phase II (% remaining) ([4]; 60 min): 50% | Metabolic stability, Plasma (% remaining) ([5]; 0 min): 100% | Metabolic stability, Plasma (% remaining) ([5]; 15 min): 100% | Metabolic stability, Plasma (% remaining) ([5]; 30 min): 99% | Metabolic stability, Plasma (% remaining) ([5]; 60 min): 103% | stability in mouse plasma ([5]; over a period of 60 minutes): stable | Metabolic stability, Negative Control (% remaining) ([6]; 0 min): 100% | Metabolic stability, Negative Control (% remaining) ([6]; 15 min): 104% | Metabolic stability, Negative Control (% remaining) ([6]; 30 min): 97% | Metabolic stability, Negative Control (% remaining) ([6]; 60 min): 119% | metabolism in microsomes without the cofactors ([6]; mouse liver microsomes, no NADPH/UDPGA): No metabolism was observed

Reference: US9862679B2, “Potent and selective inhibitors of monoamine transporters; method of making; and use thereof” (priority 2013, dated 2018)
